In patent US6630469B2, “5-HT7 receptor antagonists” (Bristol-Myers Squibb Company, priority 2000, dated 2003):

Target: T1, human 5-HT7 receptor (Homo sapiens, UniProt P34969)
T1 construct: expressed in transfected cells; host or cells: CHO cells
Assay: 5-HT7 Receptor Binding Assay
Details: membranes of CHO cells expressing human 5-HT7 receptor; 1 nM 3H-5-carboxamidotryptamine; 25° C., 60 minutes
Method: 5-HT7 Receptor Binding Assay
Membranes are prepared for binding using the human 5-HT7 receptor expressed in CHO cells. Cells are collected and ruptured using a dounce homogenizer. The cells are spun at 18000× g for 10 minutes and the pellet is resuspended in assay buffer, frozen in liquid nitrogen and kept at −80° C. until the day of the assay.
A total of 30 ug protein is used per well. The assay is carried out in 96-deep-well plates. The assay buffer is 50 mM HEPES. The membrane preparation is incubated at 25° C. for 60 minutes with 0.1 nM to 1000 nM test compound and 1 nM ^3H-5-carboxamidotryptamine. 10 uM serotonin is used as blocking agent to determine non-specific binding. The reaction is terminated by the addition of 1 ml of ice cold 5OmM HEPES buffer and rapid filtration through a Brandel Cell Harvester using Whatman GF/B filters. The filter pads are counted in an LKB Trilux liquid scintillation counter. IC50 values are determined using non-linear regression by Exel-fit.

T1 sequence (P34969 whole entry): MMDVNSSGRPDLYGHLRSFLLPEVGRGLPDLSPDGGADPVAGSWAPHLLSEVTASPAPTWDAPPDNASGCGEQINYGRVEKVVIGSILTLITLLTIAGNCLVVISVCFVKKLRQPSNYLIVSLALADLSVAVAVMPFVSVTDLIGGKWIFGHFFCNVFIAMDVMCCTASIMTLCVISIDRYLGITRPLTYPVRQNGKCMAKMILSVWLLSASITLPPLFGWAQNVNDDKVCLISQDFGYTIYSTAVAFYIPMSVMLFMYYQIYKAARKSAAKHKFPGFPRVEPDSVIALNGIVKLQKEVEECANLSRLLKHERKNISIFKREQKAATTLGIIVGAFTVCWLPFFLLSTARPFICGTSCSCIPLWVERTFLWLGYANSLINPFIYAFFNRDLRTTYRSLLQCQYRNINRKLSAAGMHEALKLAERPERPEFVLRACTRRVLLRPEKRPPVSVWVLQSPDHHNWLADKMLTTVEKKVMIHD

IC50 [nM]	Compound
≤ 50	Cc1ccc(CCNc2nc(N)nc(N[C@@H](C)c3ccccc3)n2)cc1 [Compound 72, N^2-[2-(4-Methylphenyl)ethyl]-N^4-[(1S)-1-phenylethyl]-1,3,5-triazine-2,4,6-triamine]
≤ 50	C[C@H](Nc1nc(N)nc(NCCc2cccc(O)c2)n1)c1ccccc1 [Compound 73, N^2-[2-(3-Hydroxyphenyl)ethyl]-N^4-[(1S)-1-phenylethyl]-1,3,5-triazine-2,4,6-triamine]
≤ 50	C[C@H](Nc1nc(N)nc(NCCc2ccc(F)cc2)n1)c1ccc([N+](=O)[O-])cc1 [Compound 74, N^2-[2-(4-Fluorophenyl)ethyl]-N^4-[(1S)-1-(4-nitrophenyl)ethyl]-1,3,5-triazine-2,4,6-triamine]
≤ 50	C[C@H](Nc1nc(N)nc(NCCc2ccc(O)cc2)n1)c1ccc([N+](=O)[O-])cc1 [Compound 75, N^2-[2-(4-Hydroxyphenyl)ethyl]-N^4-[(1S)-1-(4-nitrophenyl)ethyl]-1,3,5-triazine-2,4,6-triamine]
≤ 50	C[C@H](Nc1nc(N)nc(NCCc2ccccc2F)n1)c1ccc([N+](=O)[O-])cc1 [Compound 76, N^2-[2-(2-Fluorophenyl)ethyl]-N^4-[(1S)-1-(4-nitrophenyl)ethyl]-1,3,5-triazine-2,4,6-triamine]
≤ 50	COc1cccc(CCNc2nc(N)nc(N[C@@H](C)c3ccc([N+](=O)[O-])cc3)n2)c1 [Compound 77, N^2-[2-(3-Methoxyphenyl)ethyl]-N^4-[(1S)-1-(4-nitrophenyl)ethyl]-1,3,5-triazine-2,4,6-triamine]
≤ 50	C[C@H](Nc1nc(N)nc(NCCc2ccc(N)cc2)n1)c1ccc([N+](=O)[O-])cc1 [Compound 78, N^2-[2-(4-Aminophenyl)ethyl]-N^4-[(1S)-1-(4-nitrophenyl)ethyl]-1,3,5-triazine-2,4,6-triamine]
≤ 50	Cc1ccc(CCNc2nc(N)nc(N[C@@H](C)c3ccc([N+](=O)[O-])cc3)n2)cc1 [Compound 79, N^2-[2-(4-Methylphenyl)ethyl]-N^4-[(1S)-1-(4-nitrophenyl)ethyl]-1,3,5-triazine-2,4,6-triamine]
≤ 50	COc1cc(CCNc2nc(N)nc(N[C@@H](C)c3ccc([N+](=O)[O-])cc3)n2)ccc1O [Compound 80, N^2-[2-(4-Hydroxy-3-methoxyphenyl)ethyl]-N^4-[(1S)-1-(4-nitrophenyl)ethyl]-1,3,5-triazine-2,4,6-triamine]
≤ 50	C[C@H](Nc1cc(NCCOc2ccc(F)cc2)ncn1)c1ccccc1 [Example 16, N^4-[2-(4-Fluorophenoxy)ethyl]-N^6-[(1S)-1-phenylethyl]pyrimidine-4,6-diamine]
≤ 50	C[C@H](Nc1nc(N)nc(NCCc2ccc(F)cc2)n1)c1ccc(F)cc1 [Example 17, N^2-[(1S)-1-(4-Fluorophenyl)ethyl]-N^4-[2-(4-fluorophenyl)ethyl]-1,3,5-triazine-2,4,6-triamine]
≤ 50	C[C@H](Nc1nc(N)nc(NCCc2ccccn2)n1)c1ccc(F)cc1 [Example 18, N^2-[(1S)-1-(4-Fluorophenyl)ethyl]-N^4-[2-(2-pyridinyl)ethyl]-1,3,5-triazine-2,4,6-triamine]
≤ 50	Nc1nc(NCCc2ccccc2)nc(NCc2ccccc2Cl)n1 [N^2-(2-Chlorophenylmethyl)-N^4-(2-phenylethyl)-1,3,5-triazine-2,4,6-triamine]
≤ 50	c1ccc(CNc2ccnc(NCCOc3ccccc3)n2)cc1 [N^2-(2-Phenoxyethyl)-N^4-(phenylmethyl)pyrimidine-2,4-diamine]
≤ 50	FC(F)(F)c1cccc(CNc2ccnc(NCCOc3ccccc3)n2)c1 [N^2-(2-Phenoxyethyl)-N^4-[3-(trifluoromethyl)phenylmethyl]pyrimidine-2,4-diamine]
101 to 200	FC(F)(F)c1ccc(CNc2ccnc(NCCOc3ccccc3)n2)cc1 [N^2-(2-Phenoxyethyl)-N^4-[4-(trifluoromethyl)phenylmethyl]pyrimidine-2,4-diamine]
101 to 200	C[C@@H](Nc1ccnc(NCCOc2ccccc2)n1)c1ccccc1 [N^2-(2-Phenoxyethyl)-N^4-[(1R)-1-phenylethyl]pyrimidine-2,4-diamine]
101 to 200	CC[C@@H](Nc1ccnc(NCCOc2ccccc2)n1)c1ccccc1 [N^2-(2-Phenoxyethyl)-N^4-[(1R)-1-phenylpropyl]pyrimidine-2,4-diamine]
≤ 50	C[C@H](Nc1ccnc(NCCOc2ccccc2)n1)c1ccccc1 [N^2-(2-Phenoxyethyl)-N^4-[(1S)-1-phenylethyl]pyrimidine-2,4-diamine]
≤ 50	CC[C@H](Nc1ccnc(NCCOc2ccccc2)n1)c1ccccc1 [N^2-(2-Phenoxyethyl)-N^4-[(1S)-1-phenylpropyl]pyrimidine-2,4-diamine]
51 to 100	CC(Nc1ccnc(NCCSc2ccccc2)n1)c1ccccc1 (stereo not shown) [N^2-(2-Phenthioethyl)-N^4-(1-phenylethyl)pyrimidine-2,4-diamine]
101 to 200	c1ccc(CCNc2nccc(NCc3ccncc3)n2)cc1 [N^2-(2-Phenylethyl)-N^4-(4-pyridinylmethyl)pyrimidine-2,4-diamine]

IC50 [nM]	Compound
≤ 50	c1ccc(CCNc2nccc(NCc3ccccc3)n2)cc1 [N^2-(2-Phenylethyl)-N^4-(phenylmethyl)pyrimidine-2,4-diamine]
≤ 50	FC(F)(F)c1cccc(CNc2ccnc(NCCc3ccccc3)n2)c1 [N^2-(2-Phenylethyl)-N^4-[3-(trifluoromethyl)phenylmethyl]pyrimidine-2,4-diamine]
101 to 200	FC(F)(F)c1ccc(CNc2ccnc(NCCc3ccccc3)n2)cc1 [N^2-(2-Phenylethyl)-N^4-[4-(trifluoromethyl)phenylmethyl]pyrimidine-2,4-diamine]
101 to 200	C[C@@H](Nc1ccnc(NCCc2ccccc2)n1)c1ccccc1 [N^2-(2-Phenylethyl)-N^4-[(1R)-1-phenylethyl]pyrimidine-2,4-diamine]
51 to 100	CC[C@@H](Nc1ccnc(NCCc2ccccc2)n1)c1ccccc1 [N^2-(2-Phenylethyl)-N^4-[(1R)-1-phenylpropyl]pyrimidine-2,4-diamine]
≤ 50	CC[C@H](Nc1ccnc(NCCc2ccccc2)n1)c1ccccc1 [N^2-(2-Phenylethyl)-N^4-[(1S)-1-phenylpropyl]pyrimidine-2,4-diamine]
≤ 50	CC(Nc1ccnc(N(C)CCc2ccccc2)n1)c1ccccc1 (stereo not shown) [N^2-(Methyl)-N^2-(2-phenylethyl)-N^4-(1-phenylethyl)pyrimidine-2,4-diamine]
≤ 50	CC(Nc1ccnc(NCCc2ccccc2F)n1)c1ccccc1 (stereo not shown) [N^2-[2-(2-Fluorophenyl)ethyl]-N^4-(1-phenylethyl)pyrimidine-2,4-diamine]
≤ 50	COc1ccccc1CCNc1nc(C)cc(N[C@@H](C)c2ccccc2)n1 [N^2-[2-(2-Methoxyphenyl)ethyl]-6-methyl-N^4-[(1S)-1-phenylethyl]pyrimidine-2,4-diamine]
51 to 100	COc1ccccc1CCNc1nccc(NC(C)c2ccccc2)n1 (stereo not shown) [N^2-[2-(2-Methoxyphenyl)ethyl]-N^4-(1-phenylethyl)pyrimidine-2,4-diamine]
51 to 100	CC(Nc1ccnc(NCCc2ccc(Cl)c(Cl)c2)n1)c1ccccc1 (stereo not shown) [N^2-[2-(3,4-Dichlorophenyl)ethyl]-N^4-(1-phenylethyl)pyrimidine-2,4-diamine]
51 to 100	COc1cc(CCNc2nc(C)cc(N[C@@H](C)c3ccccc3)n2)cc(OC)c1 [N^2-[2-(3,5-Dimethoxyphenyl)ethyl]-6-methyl-N^4-[(1S)-1-phenylethyl]pyrimidine-2,4-diamine]
101 to 200	CC(=O)Nc1cccc(CCNc2nc(C)cc(N[C@@H](C)c3ccccc3)n2)c1 [N^2-[2-(3-Acetamidophenyl)ethyl]-6-methyl-N^4-[(1S)-1-phenylethyl]pyrimidine-2,4-diamine]
51 to 100	COc1ccc(CCNc2nc(C)cc(N[C@@H](C)c3ccccc3)n2)cc1Br [N^2-[2-(3-Bromo-4-methoxyphenyl)ethyl]-6-methyl-N^4-[(1S)-1-phenylethyl]pyrimidine-2,4-diamine]
≤ 50	Cc1cc(N[C@@H](C)c2ccccc2)nc(NCCc2cccc(Br)c2)n1 [N^2-[2-(3-Bromophenyl)ethyl]-6-methyl-N^4-[(1S)-1-phenylethyl]pyrimidine-2,4-diamine]
≤ 50	CC(Nc1ccnc(NCCc2cccc(Cl)c2)n1)c1ccccc1 (stereo not shown) [N^2-[2-(3-Chlorophenyl)ethyl]-N^4-(1-phenylethyl)pyrimidine-2,4-diamine]
≤ 50	Cc1cc(N[C@@H](C)c2ccccc2)nc(NCCc2cccc(C#N)c2)n1 [N^2-[2-(3-Cyanophenyl)ethyl]-6-methyl-N^4-[(1S)-1-phenylethyl]pyrimidine-2,4-diamine]
≤ 50	Cc1cc(N[C@@H](C)c2ccccc2)nc(NCCc2cccc(F)c2)n1 [N^2-[2-(3-Fluorophenyl)ethyl]-6-methyl-N^4-[(1S)-1-phenylethyl]pyrimidine-2,4-diamine]
≤ 50	CC(Nc1ccnc(NCCc2cccc(F)c2)n1)c1ccccc1 (stereo not shown) [N^2-[2-(3-Fluorophenyl)ethyl]-N^4-(1-phenylethyl)pyrimidine-2,4-diamine]
≤ 50	COc1cccc(CCNc2nc(C)cc(N[C@@H](C)c3ccccc3)n2)c1 [N^2-[2-(3-Methoxyphenyl)ethyl]-6-methyl-N^4-[(1S)-1-phenylethyl]pyrimidine-2,4-diamine]
≤ 50	COc1cccc(CCNc2nccc(NC(C)c3ccccc3)n2)c1 (stereo not shown) [N^2-[2-(3-Methoxyphenyl)ethyl]-N^4-(1-phenylethyl)pyrimidine-2,4-diamine]
